Reference: paper PMC8197855, “Peptide/β-Peptoid Hybrids with Activity against Vancomycin-Resistant Enterococci: Influence of Hydrophobicity and Structural Features on Antibacterial and Hemolytic Properties” (International Journal of Molecular Sciences, 2021)
≈ marks a conversion by molar mass, not a printed value.

Assays:
Hemolytic activity = type: cell-based, human; conditions: 37 °C, 1% red blood cell suspension
Protocol: A suspension of hRBCs (Single-donor human red blood cells—washed; catalogue No. IPLA-W3 from Innovative researchTM) was washed three times with PBS buffer and centrifuged for 5 min at 2500 rpm. A two-fold serial dilution of compounds in PBS buffer was prepared. Plates (conical-bottomed 96-well plates) with 3 replicate wells per dilution, containing 1% red blood cell suspension, were prepared and dosed with the test compound to achieve a final concentration of 400 μg/mL in a total volume of 100 μL. The plates were incubated (37 °C) for 60 min with mild agitation, and then the cells were pelleted by centrifugation at 1500 rpm for 5 min. Then, the supernatants (50 μL) were transferred to a fresh 96-well plate, and then the concentration of hemoglobin was detected by measuring the OD at 405 nm. The OD of cells incubated with 1% SDS achieved 100% hemolysis, while the OD of cells incubated with PBS buffer achieved 0% hemolysis. The concentration tested was 400 μg/mL (only average values are stated in Table 3). The percent hemolysis was calculated by using the formula:Hemolysis(%) = 100 × [(Asample − Aneg.control)/(Apos. control − Aneg.control)]

E. faecium 2961 = test: microbe, parasite or virus in culture; type: cell-based, Enterococcus faecium; conditions: 2961, 24 h
Protocol: (§1) Overnight cultures of the enterococcal isolates were diluted in physiological saline (0.9% NaCl) to reach a turbidity of 0.5 McFarland units (Sensititre® nephelometer and the Sensititre® McFarland Standard). Bacterial suspensions were adjusted to 5 × 10^5 CFU/mL in MHB II or BHI broth containing two-fold dilutions of peptidomimetics or conventional antibiotics in a final volume of 100 µL. The plates were incubated for 24 h at 37 °C without shaking. […] All experiments were performed in three biological replicates.

E. faecium 1798 = test: microbe, parasite or virus in culture; type: cell-based, Enterococcus faecium; conditions: 1798, 24 h
Protocol: as §1

E. faecium D344R = test: microbe, parasite or virus in culture; type: cell-based, Enterococcus faecium; conditions: E. faecium D344R, human clinical isolate; 24 h
Protocol: as §1

E. faecium 3978 = test: microbe, parasite or virus in culture; type: cell-based, Enterococcus faecium; conditions: 3978, 24 h
Protocol: as §1

E. faecalis ATCC 29212 = test: microbe, parasite or virus in culture; type: cell-based, Enterococcus faecalis; conditions: ATCC 29212, 24 h
Protocol: as §1, with “replicates. […]” for “replicates.”

E. faecium ATCC 19434 = test: microbe, parasite or virus in culture; type: cell-based, Enterococcus faecium; conditions: ATCC 19434, 24 h
Protocol: as §1, with “replicates. […]” for “replicates.”

[1] = system: HepG2 cell line ATCC HB-8065; test: Effect on HepG2 cell viability (MTT assay); type: cell-based, human; conditions: 48 h
Protocol: The effect of peptidomimetics on mammalian cell viability was determined on the HepG2 cell line ATCC HB-8065. In brief, HepG2 cells were seeded into flat-bottom 96-well plates at a concentration of 5000 cells per well. The cells were incubated for 24 h in a humidified incubator (5% CO2, 37 °C). Subsequently, the medium was removed, and the cells were incubated for 48 h in a humidified incubator (5% CO2, 37 °C) with peptidomimetics in serial dilutions. An MTT assay was then performed; in brief, after incubation with the test compounds, the culture medium was removed and fresh medium with 0.2 mg/mL MTT was then added into each well. After incubation (3 h, 37 °C, 5% CO2), the medium with MTT was removed, and 200 μL dimethyl sulfoxide was added at once to each sample. The absorbance of MTT was measured using the spectrophotometer TECAN Infinite M1000 at 540 nm. The relative viability was calculated by using the formula:ODtreated cells × 100/ODcontrol cells
The IC50 values were calculated using the program Graph Pad Prism 5.0. For all compounds, the test range was 10–1280 μg/mL.

E. faecalis 39002 = test: microbe, parasite or virus in culture; type: cell-based, Enterococcus faecalis; conditions: 39002, 24 h
Protocol: as §1

E. faecalis 38262 = test: microbe, parasite or virus in culture; type: cell-based, Enterococcus faecalis; conditions: 38262, 24 h
Protocol: as §1

Compound | hemolysis at 60 min, 400 µg/mL (Hemolytic activity; human, human red blood cells (washed, 1% suspension)) | Minimum inhibitory concentration (E. faecium 2961) | Minimum inhibitory concentration (E. faecium 1798) | Minimum inhibitory concentration (E. faecium D344R) | Minimum inhibitory concentration (E. faecium 3978) | Minimum inhibitory concentration (E. faecalis ATCC 29212) | Minimum inhibitory concentration (E. faecium ATCC 19434) | HepG2 IC50 [1] | Minimum inhibitory concentration (E. faecalis 39002) | Minimum inhibitory concentration (E. faecalis 38262) | hemolysis (Hemolytic activity; 400 µg/mL, 60 min)
NCCCC[C@H](NC(=O)CCN(Cc1cc(F)c(F)c(F)c1)C(=O)[C@H](CCCCN)NC(=O)CCN(Cc1cc(F)c(F)c(F)c1)C(=O)[C@H](CCCCN)NC(=O)CCN(Cc1cc(F)c(F)c(F)c1)C(=O)[C@H](CCCCN)NC(=O)CCN(Cc1cc(F)c(F)c(F)c1)C(=O)[C@H](CCCCN)NC(=O)CCN(Cc1cc(F)c(F)c(F)c1)C(=O)[C@@H](N)CCCCN)C(=O)N(CCC(N)=O)Cc1cc(F)c(F)c(F)c1 [Compound 8, H-[Lys-βNPhe(F3)]6-NH2] | > 20% | 2 µg/mL (≈ 0.963 µM) | 2 to 4 µg/mL | 2 µg/mL (≈ 0.963 µM) | 2 µg/mL (≈ 0.963 µM) | 2 to 4 µg/mL | 2 to 4 µg/mL | 27 µg/mL | 2 µg/mL (≈ 0.963 µM) | 8 to 16 µg/mL | –
NCCCC[C@H](NC(=O)CCN(CC1CCCCC1)C(=O)[C@H](CCCCN)NC(=O)CCN(CC1CCCCC1)C(=O)[C@H](CCCCN)NC(=O)CCN(CC1CCCCC1)C(=O)[C@H](CCCCN)NC(=O)CCN(CC1CCCCC1)C(=O)[C@H](CCCCN)NC(=O)CCN(CC1CCCCC1)C(=O)[C@H](CCCCN)NC(=O)CCN(CC1CCCCC1)C(=O)[C@H](CCCCN)NC(=O)CCN(CC1CCCCC1)C(=O)[C@@H](N)CCCCN)C(=O)N(CCC(N)=O)CC1CCCCC1 [Compound 9, H-[Lys-βNCha]8-NH2] | – | 2 to 4 µg/mL | 2 to 4 µg/mL | – | 2 to 4 µg/mL | 2 to 4 µg/mL | 2 to 4 µg/mL | – | 4 µg/mL (≈ 1.68 µM) | 8 µg/mL (≈ 3.36 µM) | > 20%
CCCCCCCCCCCC(=O)N[C@@H](CCCCN)C(=O)N(CCC(=O)N[C@@H](CCCCN)C(=O)N(CCC(=O)N[C@@H](CCCCN)C(=O)N(CCC(=O)N[C@@H](CCCCN)C(=O)N(CCC(=O)N[C@@H](CCCCN)C(=O)N(CCC(=O)N[C@@H](CCCCN)C(=O)N(CCC(N)=O)Cc1ccccc1)Cc1ccccc1)Cc1ccccc1)Cc1ccccc1)Cc1ccccc1)Cc1ccccc1 [Compound 11, Lau-[Lys-βNPhe]6-NH2] | – | 2 to 4 µg/mL | 2 to 4 µg/mL | 2 to 4 µg/mL | 2 to 4 µg/mL | 4 µg/mL (≈ 2.07 µM) | 4 µg/mL (≈ 2.07 µM) | 22 µg/mL | 4 to 8 µg/mL | 4 to 8 µg/mL | –
